Assay: excess molar enthalpy (molar enthalpy of mixing); xn = mol fraction of the nth substance listed
Details: 298.15 K, 101 kPa, Liquid, Calvet calorimetry

COP(=O)(OC)OC [trimethyl orthophosphate] + CCCO
Details	excess molar enthalpy [kJ/mol]
x1 = 0.0408	0.274
x1 = 0.0836	0.526
x1 = 0.1284	0.725
x1 = 0.1753	0.885
x1 = 0.225	0.982
x1 = 0.2769	1.07
x1 = 0.3319	1.17
x1 = 0.39	1.22
x1 = 0.4508	1.24
x1 = 0.5139	1.18
x1 = 0.5701	1.13
x1 = 0.6274	1.03
x1 = 0.6875	0.914
x1 = 0.7351	0.823
x1 = 0.7834	0.698
x1 = 0.8518	0.491
x1 = 0.9054	0.33
x1 = 0.9614	0.174

COP(=O)(OC)OC [trimethyl orthophosphate] + CCO
Details	excess molar enthalpy [kJ/mol]
x1 = 0.0322	0.154
x1 = 0.0665	0.308
x1 = 0.1032	0.456
x1 = 0.1426	0.552
x1 = 0.185	0.633
x1 = 0.2305	0.702
x1 = 0.2796	0.751
x1 = 0.3327	0.826
x1 = 0.3671	0.871
x1 = 0.4156	0.873
x1 = 0.454	0.859
x1 = 0.5232	0.804
x1 = 0.6	0.714
x1 = 0.6836	0.604
x1 = 0.7775	0.466
x1 = 0.8821	0.262
x1 = 0.928	0.177
x1 = 0.9752	0.088

COP(=O)(OC)OC [trimethyl orthophosphate] + CO
Details	excess molar enthalpy [kJ/mol]
x1 = 0.037	0.0495
x1 = 0.0739	0.0883
x1 = 0.1033	0.112
x1 = 0.1428	0.138
x1 = 0.1876	0.149
x1 = 0.2569	0.226
x1 = 0.3086	0.213
x1 = 0.3658	0.201
x1 = 0.4047	0.186
x1 = 0.4619	0.173
x1 = 0.51	0.147
x1 = 0.562	0.126
x1 = 0.6405	0.0988
x1 = 0.7079	0.0651
x1 = 0.783	0.0427
x1 = 0.8383	0.0283
x1 = 0.9	0.014
x1 = 0.9647	0.00198

COP(=O)(OC)OC [trimethyl orthophosphate] + CCCCO
Details	excess molar enthalpy [kJ/mol]
x1 = 0.0497	0.4
x1 = 0.1005	0.736
x1 = 0.1531	1
x1 = 0.2071	1.22
x1 = 0.2625	1.35
x1 = 0.3199	1.44
x1 = 0.3794	1.48
x1 = 0.439	1.47
x1 = 0.5024	1.44
x1 = 0.5663	1.37
x1 = 0.6329	1.3
x1 = 0.7016	1.13
x1 = 0.7727	0.928
x1 = 0.8458	0.678
x1 = 0.9216	0.368

Source: the NIST ThermoML archive (doi:10.1016/j.tca.2008.02.015)
